Key:
PTCL-NOS = test: In vitro cytotoxic activity, lymphoma cell line panel: PTCL-NOS; format: cell-based, human; details: 1 cell line, read-out: Median IC50
REH = test: In vitro cytotoxicity, REH; format: cell-based, human; details: REH (B-ALL), CD22-positive; mean ± SEM
SUP-T1 = test: In vitro cytotoxicity, SUP-T1; format: cell-based, human; details: SUP-T1 (T-LL), CD22-negative; mean ± SEM
REH cells = test: Disseminated B-ALL-derived xenograft model (REH); format: in vivo, mice
Experimental: (§1) The log-rank test was used to analyze the significance of differences in TTE between the 2 groups. For the disseminated xenografts model, 10^7 REH cells were inoculated intravenously (IV) into 5- to 8-week-old female NOG mice (Taconic Biosciences). Test compounds were administered IV 4 days after tumor cell inoculation. Individual mice were euthanized, and an autopsy was performed when hind leg paralysis (a sign of leukemia development) occurred and/or the body weight decreased ≥20%. The study was terminated on day 62. The log-rank test was used to determine the significance of the differences in overall survival.

SEM cells = test: In vitro cytotoxicity, SEM; format: cell-based, human; details: SEM (B-ALL), CD22-positive; mean ± SEM
[1] = test system: CD22-expressing Ramos cells; test: Cell surface binding, internalization and LAMP-1 colocalization; format: cell-based, human
NALM-6 = test: In vitro cytotoxicity, NALM-6; format: cell-based, human; details: NALM-6 (B-ALL), CD22-positive; mean ± SEM
GRANTA-519 = test: In vitro cytotoxicity, GRANTA-519; format: cell-based, human; details: GRANTA-519 (MCL), CD22-positive; mean ± SEM
NAMALWA = test: In vitro cytotoxicity, NAMALWA; format: cell-based, human; details: NAMALWA (BL), CD22-positive; mean ± SEM
[2] = test system: CD22-negative KARPAS-299 cells; test: Bystander killing by conditioned medium transfer; format: cell-based, human; details: for percentage survival of KARPAS-299 cells: 96 hours incubation
Experimental: The ADCT-602-conditioned medium elicited a bystander effect after 1 day of pretreatment, as shown by a decrease in the percentage survival in the conditioned medium-treated KARPAS-299 cells, compared with the nonconditioned medium (97% to 78%, P = .001). The bystander effect increased after 2 to 3 days of preincubation in Ramos cells, as shown by a further decrease in the percentage of cell survival compared with the nonconditioned medium (66% and 62%, P < .0001).

ABC-DLBCL = test: In vitro cytotoxic activity, lymphoma cell line panel: ABC-DLBCL; format: cell-based, human; details: 6 cell lines, read-out: Median IC50
CLL = test: In vitro cytotoxic activity, lymphoma cell line panel: CLL; format: cell-based, human; details: 2 cell lines, read-out: Median IC50
KARPAS-299 [3] = test: In vitro cytotoxicity, KARPAS-299; format: cell-based, human; details: KARPAS-299 (ALCL), CD22-negative; mean ± SEM
WSU-DLCL2 xenograft = test: SC WSU-DLCL2 xenograft model; format: in vivo, mice
Source text: (§2) Ramos, WSU-DLCL2, and KARPAS-299 xenografts were established in 8- to 10-week-old female Fox Chase mice with severe combined immunodeficiency (Charles River Laboratories) by implanting 10^7 cells subcutaneously (SC) into their flanks. When group mean tumor volumes reached approximately 116 to 132 mm^3, mice were randomly allocated into groups to receive the test agent or vehicle. Each animal was euthanized when its tumor reached the end point volume or at the study end. The time to end point (TTE) for analysis was calculated for each mouse by the following equation: TTE (days) = ([log10(end point volume−intercept^(*)]/slope^(*)) [formula] where the * indicates the slope of the line obtained by linear regression of a log-transformed tumor growth data set.
as §1

MCL = test: In vitro cytotoxic activity, lymphoma cell line panel: MCL; format: cell-based, human; details: 10 cell lines, read-out: Median IC50
KARPAS-299 [4] = test: DNA interstrand crosslinks, single cell gel electrophoresis (Comet) assay, KARPAS-299; format: cell-based, human; details: KARPAS-299 (CD22-negative), over 48 hours following a 2-hour treatment
Experimental: (§3) Quantification of in vitro DNA interstrand crosslinks (ICLs) was performed using the single cell gel electrophoresis (Comet) assay.
(§4) DNA ICLs were measured using a modification of the single-cell gel electrophoresis (Comet) assay, and crosslinking was expressed as the percentage decrease in Olive tail moment (OTM) versus control irradiated cells. […] Immediately after the drug incubation period, a low level of ICLs (3%) was observed, which increased over time to near peak levels (≈50%) at 12 hours and persisted up to 48 hours. […] In this cell line, SG3199 produced a high level of ICL (≈50%), similar to that observed in the Ramos cell line.

T-cell lymphomas = test: In vitro cytotoxic activity, lymphoma cell line panel: T-cell lymphomas; format: cell-based, human; details: 9 cell lines, read-out: Median IC50
PMBCL = test: In vitro cytotoxic activity, lymphoma cell line panel: PMBCL; format: cell-based, human; details: 1 cell line, read-out: Median IC50
KM-H2 = test: In vitro cytotoxicity, KM-H2; format: cell-based, human; details: KM-H2 (HL), CD22-negative; mean ± SEM
DO HH-2 = test: In vitro cytotoxicity, DO HH-2; format: cell-based, human; details: DO HH-2 (FL), CD22-positive; mean ± SEM
Ramos = test: In vitro cytotoxicity, Ramos; format: cell-based, human; details: Ramos (BL), CD22-positive; mean ± SEM
CTCL = test: In vitro cytotoxic activity, lymphoma cell line panel: CTCL; format: cell-based, human; details: 3 cell lines, read-out: Median IC50
B-cell lymphomas = details: read-out: Median IC50, 48 cell lines
Ramos xenograft = test: SC Ramos xenograft; format: in vivo, mice
Source text: as §2, §1

Daudi = test: In vitro cytotoxicity, Daudi; format: cell-based, human; details: Daudi (BL), CD22-positive; mean ± SEM
B cells = test: B-cell depletion from circulation; format: in vivo; details: cynomolgus monkeys, after one ADCT-602 dose
ALCL = test: In vitro cytotoxic activity, lymphoma cell line panel: ALCL; format: cell-based, human; details: 5 cell lines, read-out: Median IC50
HL = test: In vitro cytotoxic activity, lymphoma cell line panel: HL; format: cell-based, human; details: 3 cell lines, read-out: Median IC50
MEC-2 = test: In vitro cytotoxicity, MEC-2; format: cell-based, human; details: MEC-2 (CLL), CD22-positive; mean ± SEM
MZL = test: In vitro cytotoxic activity, lymphoma cell line panel: MZL; format: cell-based, human; details: 6 cell lines, read-out: Median IC50
Ramos cells = test: DNA interstrand crosslinks, single cell gel electrophoresis (Comet) assay, Ramos; format: cell-based, human; details: 2-hour exposure
Experimental: as §3, §4

[5] = test system: Ramos, TMD8, and SU-DHL-4 cell lines; test: In vitro cytotoxicity following pretreatment with chidamide; format: cell-based; details: pretreatment with chidamide (0.25 or 0.5 µM) for 7 days, then ADC for 5 days
Experimental: Chidamide (Selleckchem) was dissolved in dimethyl sulfoxide (DMSO) according to the manufacturer's instructions. Cells were treated with chidamide (0.25 or 0.5 µM) for 7 days at 37°C in a 5% carbon dioxide-gassed, humidified incubator. On day 3, cells were centrifuged, and fresh medium containing the corresponding concentrations of chidamide was added. The control group was treated with equal volumes of DMSO.
Cell viability was measured with the CellTiter 96 Aqueous One Solution Cell Proliferation Assay (Promega). Data were normalized to untreated control cells. The IC50 values were determined using GraphPad software (GraphPad). The mean and standard errors of 3 independent IC50 values were determined.

KARPAS-299 xenograft = test: SC KARPAS-299 xenograft model (CD22-negative); format: in vivo, mice; details: single 1 mg/kg dose; end of the study (day 29)
Source text: as §2, §1

GCB-DLBCL = test: In vitro cytotoxic activity, lymphoma cell line panel: GCB-DLBCL; format: cell-based, human; details: 20 cell lines, read-out: Median IC50
[6] = single dose 3 mg/kg, end of the study (day 59)
[7] = single dose 1 mg/kg, end of the study (day 60)

“ADCT-602: novel ADC targeting CD22 that consists of humanized monoclonal antibody hLL2-C220, sitespecifically conjugated to the pyrrolobenzodiazepine (PBD) dimer-based payload tesirine” gave an IC50 (PTCL-NOS) of 0.7 nM, an IC50 (REH) of 0.05 ± 0.006 nM and an IC50 (SUP-T1) of 9.34 ± 1.02 nM. The “survival time, single dose versus equivalent fractionated dose” value (REH cells; single 1.3 mg/kg versus 0.45 mg/kg, every 4 days, for 3 times [Q4D×3]) was “comparable survival time”, the “survival compared with the vehicle and the isotype control ADC” value (REH cells; single dose at 0.45 mg/kg and 1.3 mg/kg IV) was “dose-dependent extension of survival” and the IC50 (SEM cells) was 0.52 ± 0.08 nM. The “internalization and trafficking to lysosomes” value ([1]; 37°C, 1- and 2-hour time points) was “cellular internalization and colocalization of ADCT-602 with LAMP-1”, the “residual ADC staining” value ([1]; 24 hours) was “no residual ADC staining” and the “cell surface (membrane) binding” value ([1]; T 0 hours) was “prominent cell surface binding”. The IC50 (NALM-6) was 0.11 ± 0.018 nM, the IC50 (GRANTA-519) was 0.02 ± 0.0005 nM and the IC50 (NAMALWA) was 2.27 ± 0.052 nM. For the same substance, the “change in percentage of cell survival compared with the nonconditioned medium” value ([2]; conditioned medium from ADCT-602-treated, CD22-negative NCI-N87 cells) was “no significant change”, the “percentage survival of KARPAS-299 cells” value ([2]; conditioned medium from Ramos cells treated with ADCT-602 for 1 day) was 78% and the “percentage survival of KARPAS-299 cells” value ([2]; conditioned medium from Ramos cells treated with ADCT-602 for 2 days) was 66%. The “percentage survival of KARPAS-299 cells” value ([2]; conditioned medium from Ramos cells treated with ADCT-602 for 3 days) was 62%, the “percentage survival of KARPAS-299 cells” value ([2]; nonconditioned medium, comparator for 1 day pretreatment) was 97% and the IC50 (ABC-DLBCL) was 0.395 nM. The IC50 (CLL) was 0.23 nM, the IC50 (KARPAS-299 [3]) was 51.7 ± 3.86 nM and the CRs (WSU-DLCL2 xenograft; [6]) was 7/10. For the same substance, the partial responders (WSU-DLCL2 xenograft; [6]) was 3/10, the tumor-free survivors (WSU-DLCL2 xenograft; [6]) was 2/10 and the “antitumor activity compared with the vehicle and the isotype control ADC” value (WSU-DLCL2 xenograft; single dose at 1 and 3 mg/kg) was “dose-dependent antitumor activity”. The IC50 (MCL) was 0.375 nM, the “DNA ICLs, percentage decrease in Olive tail moment (OTM) versus control irradiated cells” value (“DNA ICLs, percentage decrease” below) (KARPAS-299 [4]) was “≈ 15%” and the IC50 (T-cell lymphomas) was 1.85 nM. For the same substance, the IC50 (PMBCL) was 0.035 nM, the IC50 (KM-H2) was 11.4 ± 1.11 nM and the IC50 (DO HH-2) was 0.06 ± 0.009 nM. It also gave an IC50 (Ramos) of 0.06 ± 0.021 nM, an IC50 (CTCL) of 1.75 nM and an IC50 (B-cell lymphomas) of 0.2 nM. For the same substance, the CRs (Ramos xenograft; [7]) was 10/10, the tumor-free survivors (Ramos xenograft; [7]) was 9/10 and the “antitumor activity compared with the vehicle and the isotype control ADC” value (Ramos xenograft; single dose at 0.3 and 1 mg/kg) was “specific and dose-dependent antitumor activity”. For the same substance, the IC50 (Daudi) was 0.07 ± 0.021 nM, the “depletion of B cells from circulation” value (B cells) was “efficiently depleted” and the IC50 (ALCL) was 2.85 nM. The IC50 (HL) was 4.5 nM, the IC50 (MEC-2) was 0.18 ± 0.05 nM and the IC50 (MZL) was 0.0625 nM. For the same substance, the “DNA ICLs, percentage decrease” value (Ramos cells; immediately after the drug incubation period) was 3%, the “DNA ICLs, percentage decrease” value (Ramos cells; peak / near peak level at 12 hours) was “≈ 50%” and the “improvement of ADCT-602 IC50 compared with cells pretreated with DMSO” value [5] was “up to 2.5 fold”. For the same substance, the “antitumor activity compared with the vehicle group” value (KARPAS-299 xenograft) was “no significant antitumor activity” and the IC50 (GCB-DLBCL) was 0.1 nM.

— patent publication EP4410314A1, “COMBINATION THERAPY COMPRISING ANTI-CD22 ANTIBODY-DRUG CONJUGATE AND IRAK1 INHIBITOR” (ADC Therapeutics SA, priority 2023, dated 2024)
